One assay deals with TEM-1 β-lactamase enzyme (Escherichia coli, UniProt P62593). Put plainly: β-lactamase inhibitory activity: 50% inhibition of β-lactam hydrolysis, TEM-1. The assay is classed as biochemical.
Assay [1] addresses P. mirabilis β-lactamase enzyme. Briefly: β-lactamase inhibitory activity: 50% inhibition of β-lactam hydrolysis, P. mirabilis. Conditions: read-out: I50 (concentration required to achieve 50% inhibition of β-lactam hydrolysis). The assay is classed as biochemical.
The target of the next assay is BC II β-lactamase enzyme (Bacillus cereus, UniProt P04190). Briefly: β-lactamase inhibitory activity: 50% inhibition of β-lactam hydrolysis, BC II. The assay is classed as biochemical.
Sequence of BC II β-lactamase enzyme (P04190 31-257): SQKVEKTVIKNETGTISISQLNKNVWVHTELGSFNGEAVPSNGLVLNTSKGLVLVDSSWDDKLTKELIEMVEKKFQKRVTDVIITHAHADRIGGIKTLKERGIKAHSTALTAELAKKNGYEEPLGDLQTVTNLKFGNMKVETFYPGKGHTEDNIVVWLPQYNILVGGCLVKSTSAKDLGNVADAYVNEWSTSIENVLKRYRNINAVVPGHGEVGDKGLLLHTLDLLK
The next assay has as its target P99 β-lactamase enzyme (Enterobacter cloacae, UniProt P05364). Briefly: biochemical.
Another assay deals with PC1 β-lactamase enzyme (Staphylococcus aureus, UniProt P00807). Briefly: biochemical.
Sequence of PC1 β-lactamase enzyme (P00807 25-281): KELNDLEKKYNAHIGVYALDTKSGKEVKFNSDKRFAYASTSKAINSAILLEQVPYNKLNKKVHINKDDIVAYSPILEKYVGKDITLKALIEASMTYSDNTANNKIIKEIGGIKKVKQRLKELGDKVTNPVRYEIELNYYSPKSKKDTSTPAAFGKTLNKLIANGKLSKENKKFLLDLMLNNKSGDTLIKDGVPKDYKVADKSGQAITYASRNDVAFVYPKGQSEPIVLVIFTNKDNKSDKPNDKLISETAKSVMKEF
The target of a further assay is OXA-1 β-lactamase enzyme (Escherichia coli, UniProt P13661). Put plainly: biochemical.
Sequence of OXA-1 β-lactamase enzyme (P13661 26-276): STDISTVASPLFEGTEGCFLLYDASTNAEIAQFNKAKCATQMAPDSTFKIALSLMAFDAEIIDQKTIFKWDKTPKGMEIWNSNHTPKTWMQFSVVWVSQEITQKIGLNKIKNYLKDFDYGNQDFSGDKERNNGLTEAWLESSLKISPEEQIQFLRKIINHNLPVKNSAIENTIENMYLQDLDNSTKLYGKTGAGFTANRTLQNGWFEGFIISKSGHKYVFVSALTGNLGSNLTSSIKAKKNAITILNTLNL

SMILES strings stand for the structures. Where only a bound is given, the exact number is not on record here.

Sequence of TEM-1 β-lactamase enzyme (P62593 24-286 limits assumed): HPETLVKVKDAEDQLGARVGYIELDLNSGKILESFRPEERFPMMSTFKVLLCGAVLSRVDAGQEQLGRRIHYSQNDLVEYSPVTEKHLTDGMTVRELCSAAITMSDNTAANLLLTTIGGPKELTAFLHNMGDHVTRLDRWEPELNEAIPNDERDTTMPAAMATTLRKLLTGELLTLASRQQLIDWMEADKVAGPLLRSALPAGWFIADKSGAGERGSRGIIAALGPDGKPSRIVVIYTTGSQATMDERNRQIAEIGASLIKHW
Sequence of P99 β-lactamase enzyme (P05364 21-381): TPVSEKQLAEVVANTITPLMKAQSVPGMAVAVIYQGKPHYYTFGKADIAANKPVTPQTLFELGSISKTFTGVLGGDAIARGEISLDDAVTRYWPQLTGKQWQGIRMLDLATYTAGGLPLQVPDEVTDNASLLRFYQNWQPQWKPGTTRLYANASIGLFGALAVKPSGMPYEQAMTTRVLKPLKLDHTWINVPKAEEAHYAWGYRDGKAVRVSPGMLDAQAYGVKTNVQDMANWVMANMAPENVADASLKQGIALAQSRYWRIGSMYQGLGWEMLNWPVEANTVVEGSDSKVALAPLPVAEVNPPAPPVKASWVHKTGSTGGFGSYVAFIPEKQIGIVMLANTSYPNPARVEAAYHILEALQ

Consider `O=C(O)C1=CS[C@@H]2/C(=C\c3cn4c(n3)SCC4)C(=O)N12` [Example 1, Sodium (5R)-6[(Z)-(2,3-dihydroimidazo[2,1-b]thiazol-6-yl)methylene]-penem-3-carboxylate], for which the IC50 against TEM-1 β-lactamase enzyme is 10 nM; in assay [1], 10 nM; at BC II β-lactamase enzyme, 48600 nM; at P99 β-lactamase enzyme it was < 5 nM; against PC1 β-lactamase enzyme, 10 nM; against OXA-1 β-lactamase enzyme it was 10 nM.

(Values after US6600035B1, “6-(substituted methylene) penems and intermediates” (SMithKline Beecham p.l.c., priority 1992, dated 2003).)
